Where two headings read alike, the source gives them in different places. Each block holds one compound with its values, some of them ahead of it.
Tests used:
[1] = target: T1, baculovirus-expressed ALK (Homo sapiens, UniProt Q9UM73); assay: ALK Kinase Assay (ELISA-type, time-resolved fluorescence); assay type: biochemical
T1 construct: host or cells: baculovirus expression system
How it was run: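 Substrate coating: phospholipase C-γ, 10 μg/mL in TBS. Kinase step: 30 ng/ml ALK, 15 min, 37° C. Detection and analysis: Eu-N1 PT66 antibody, with IC50 fitted as a sigmoidal variable-slope dose-response curve.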

[2] = target: T2, c-Met (cytoplasmic domain) (Homo sapiens, UniProt P08581); assay: c-Met Kinase Assay (same methods as for ALK, with modifications); assay type: biochemical
T2 construct: 10 ng/mL c-Met (cytoplasmic domain, Invitrogen Corporation #PV3143); purchased Invitrogen Corporation PV3143
T2 sequence (P08581 956-1390 limits assumed): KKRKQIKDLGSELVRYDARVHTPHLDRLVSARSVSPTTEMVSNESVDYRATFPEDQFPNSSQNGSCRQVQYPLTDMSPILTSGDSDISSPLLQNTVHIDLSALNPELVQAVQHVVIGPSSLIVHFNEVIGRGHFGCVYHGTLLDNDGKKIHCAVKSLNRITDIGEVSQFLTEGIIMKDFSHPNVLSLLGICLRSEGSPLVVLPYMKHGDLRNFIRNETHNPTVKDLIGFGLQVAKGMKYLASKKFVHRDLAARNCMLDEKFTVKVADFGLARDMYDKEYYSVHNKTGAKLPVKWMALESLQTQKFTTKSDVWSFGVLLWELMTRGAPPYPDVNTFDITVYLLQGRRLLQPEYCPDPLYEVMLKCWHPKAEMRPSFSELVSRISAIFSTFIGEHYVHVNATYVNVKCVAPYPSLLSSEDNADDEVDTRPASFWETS
How it was run: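 Wells were coated with 10 μg/mL phospholipase C-γ substrate in TBS, and reactions were started with 10 ng/mL c-Met cytoplasmic domain and run at 37° C for 15 minutes. Phosphorylated product was detected with Eu-N1-labeled PT66 antibody. IC50 values came from sigmoidal variable-slope fits of percent inhibition versus log compound concentration.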

[3] = ALK kinase inhibition, 1 μM ATP, read-out: ALK Activity
[4] = c-Met kinase inhibition, 1 μM ATP, read-out: cMet Activity
[5] = 1 μM ATP (Km level), read-out: ALK Activity (ALK Kinase Inhibition, IC50)
[6] = 1 μM ATP (Km level), read-out: cMet Activity (c-Met Kinase Inhibition, IC50)
[7] = 1 μM ATP (Km level), 30 ng/ml ALK, 37° C., 15 minutes, read-out: ALK Activity (ALK kinase inhibition, IC50 class)
[8] = 1 μM ATP (Km level), 10 ng/mL c-Met, read-out: cMet Activity (c-Met kinase inhibition, IC50 class)
[9] = ALK kinase inhibition, 1 μM ATP (Km level), read-out: ALK Activity
[10] = c-Met kinase inhibition, 1 μM ATP (Km level), read-out: cMet Activity

T1 sequence (Q9UM73 19-1620): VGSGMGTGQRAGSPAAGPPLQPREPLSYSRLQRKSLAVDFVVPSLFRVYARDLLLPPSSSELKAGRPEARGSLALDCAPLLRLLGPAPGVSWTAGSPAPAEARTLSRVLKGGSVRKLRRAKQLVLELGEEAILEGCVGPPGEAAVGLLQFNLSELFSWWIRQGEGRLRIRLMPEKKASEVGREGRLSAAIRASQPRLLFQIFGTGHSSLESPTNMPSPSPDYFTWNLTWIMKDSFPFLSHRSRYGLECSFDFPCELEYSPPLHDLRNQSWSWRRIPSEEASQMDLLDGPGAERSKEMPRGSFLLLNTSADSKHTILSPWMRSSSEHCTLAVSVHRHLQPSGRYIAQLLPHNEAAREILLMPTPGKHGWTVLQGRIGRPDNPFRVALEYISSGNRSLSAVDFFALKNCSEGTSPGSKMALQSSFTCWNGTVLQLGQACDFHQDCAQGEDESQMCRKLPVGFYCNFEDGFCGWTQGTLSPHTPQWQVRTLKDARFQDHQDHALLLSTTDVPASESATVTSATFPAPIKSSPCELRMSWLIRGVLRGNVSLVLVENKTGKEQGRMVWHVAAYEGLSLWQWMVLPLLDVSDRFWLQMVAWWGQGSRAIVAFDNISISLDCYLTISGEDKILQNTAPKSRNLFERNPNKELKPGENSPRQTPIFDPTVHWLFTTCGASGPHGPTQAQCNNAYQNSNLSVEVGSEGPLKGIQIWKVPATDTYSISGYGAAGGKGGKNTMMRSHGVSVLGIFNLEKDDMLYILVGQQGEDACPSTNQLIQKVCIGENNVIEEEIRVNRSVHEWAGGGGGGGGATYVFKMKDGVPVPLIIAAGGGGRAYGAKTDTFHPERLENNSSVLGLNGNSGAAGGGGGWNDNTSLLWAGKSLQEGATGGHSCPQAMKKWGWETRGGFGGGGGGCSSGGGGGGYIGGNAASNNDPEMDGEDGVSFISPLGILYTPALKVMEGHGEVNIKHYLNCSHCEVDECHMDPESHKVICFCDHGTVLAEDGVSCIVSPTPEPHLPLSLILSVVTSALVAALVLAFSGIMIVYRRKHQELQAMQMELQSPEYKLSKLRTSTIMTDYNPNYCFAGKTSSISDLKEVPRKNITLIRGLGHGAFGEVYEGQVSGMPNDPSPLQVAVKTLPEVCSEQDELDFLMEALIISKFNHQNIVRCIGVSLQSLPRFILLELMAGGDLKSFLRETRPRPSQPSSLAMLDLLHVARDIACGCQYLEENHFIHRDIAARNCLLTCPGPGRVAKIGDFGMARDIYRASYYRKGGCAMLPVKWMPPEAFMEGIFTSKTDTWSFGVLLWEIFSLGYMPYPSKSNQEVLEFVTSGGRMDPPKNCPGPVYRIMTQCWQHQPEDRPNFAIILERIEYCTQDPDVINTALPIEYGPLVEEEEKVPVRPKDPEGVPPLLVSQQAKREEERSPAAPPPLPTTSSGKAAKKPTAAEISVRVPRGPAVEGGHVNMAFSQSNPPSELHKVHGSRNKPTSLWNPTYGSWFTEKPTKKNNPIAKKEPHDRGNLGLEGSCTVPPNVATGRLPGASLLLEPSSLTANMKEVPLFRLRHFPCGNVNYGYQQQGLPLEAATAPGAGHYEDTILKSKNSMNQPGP

IC50 [1, 3]: < 100 nM | IC50 [2, 4]: > 10 µM
Compound: CCN1CCN(CC(=O)N(C)C)Cc2cc(OC)c(Nc3ncc(Cl)c(N[C@@H]4CCCC[C@H]4NS(C)(=O)=O)n3)cc21 [Example 1461, 2-{8-[5-Chloro-4-((1R,2R)-2-methanesulfonylamino-cyclohexylamino)-pyrimidin-2-ylamino]-1-ethyl-7-methoxy-1,2,3,5-tetrahydro-benzo[e][1,4]diazepin-4-yl}-N,N-dimethyl-acetamide]

IC50 [1, 5]: < 100 nM | IC50 [2, 6]: > 10 µM
Compound: COc1cc(N2CCOCC2)ccc1Nc1nc(Nc2ccc3c(c2)CCC(NCC(F)F)CC3)ncc1Cl (stereo not shown) [Example 659, 5-Chloro-N*2*-[7-(2,2-difluoro-ethylamino)-6,7,8,9-tetrahydro-5H-benzocyclohepten-2-yl]-N*4*-(2-methoxy-4-morpholin-4-yl-phenyl)-pyrimidine-2,4-diamine]

IC50 [1, 3]: < 100 nM | IC50 [2, 4]: < 0.1 µM
Compound: CNC(=O)c1cccc(F)c1Nc1nc(Nc2ccc3c(c2)CCN(CCOC)CC3)ncc1Br [Example 1471, 2-{5-Bromo-2-[3-(2-methoxy-ethyl)-2,3,4,5-tetrahydro-1H-benzo[d]azepin-7-ylamino]-pyrimidin-4-ylamino}-3-fluoro-N-methyl-benzamide]

IC50 [1, 3]: < 100 nM | IC50 [2, 4]: 0.1 to 1 µM
Compound: COCCN1CCCC(C)(C)c2ccc(Nc3ncc(Cl)c(N[C@H]4[C@@H](C(N)=O)[C@@H]5C=C[C@H]4C5)n3)cc21 [Example 1600, (1S,2S,3R,4R)-3-{5-Chloro-2-[1-(2-methoxy-ethyl)-5,5-dimethyl-2,3,4,5-tetrahydro-1H-benzo[b]azepin-8-ylamino]-pyrimidin-4-ylamino}-bicyclo[2.2.1]hept-5-ene-2-carboxylic acid amide]

IC50 [1, 7]: 100 to 1000 nM | IC50 [2, 8]: > 10 µM
Compound: COc1cc2c(cc1Nc1ncc(Cl)c(NC3(C(=O)OC(C)C)CCCC3)n1)CCN(CC(=O)N(C)C)CC2 [Example 1202, 1-[5-Chloro-2-(3-dimethylcarbamoylmethyl-8-methoxy-2,3,4,5-tetrahydro-1H-benzo[d]azepin-7-ylamino)-pyrimidin-4-ylamino]-cyclopentanecarboxylic acid isopropyl ester]

IC50 [1, 9]: < 100 nM | IC50 [2, 10]: 0.1 to 1 µM
Compound: CC(=O)OCCN1CCN(C)c2cc(Nc3ncc(Cl)c(Nc4ccccc4NS(C)(=O)=O)n3)ccc2C1 [Example 473, Acetic acid 2-{8-[5-chloro-4-(2-methanesulfonylamino-phenylamino)-pyrimidin-2-ylamino]-1-methyl-1,2,3,5-tetrahydro-benzo[e][1,4]diazepin-4-yl}-ethyl ester]

IC50 [1, 3]: < 100 nM | IC50 [2, 4]: > 10 µM
Compound: COc1cc2c(cc1Nc1ncc(C(F)(F)F)c(Nc3ccc(N4CCOCC4)cc3OC)n1)CCOC(=O)N2C [Example 1514, 3-Methoxy-2-[4-(2-methoxy-4-morpholin-4-yl-phenylamino)-5-trifluoromethyl-pyrimidin-2-ylamino]-5-methyl-8,9-dihydro-5H-7-oxa-5-aza-benzocyclohepten-6-one]

IC50 [1, 5]: 100 to 1000 nM | IC50 [2, 6]: > 10 µM
Compound: COc1c(Nc2ncc(Cl)c(NC3CCCCNC3=O)n2)ccc2c1CCC(N1CCOCC1)CC2 (mixture of isomers) [Example 902, 3-[5-Chloro-2-(1-methoxy-7-morpholin-4-yl-6,7,8,9-tetrahydro-5H-benzocyclohepten-2-ylamino)-pyrimidin-4-ylamino]-azepan-2-one]

IC50 [1, 7]: 100 to 1000 nM | IC50 [2, 8]: > 10 µM
Compound: COc1cc2c(cc1Nc1ncc(Cl)c(Nc3cc(C(N)=O)ccc3OC)n1)CCN(CCS(C)(=O)=O)CC2 [Example 1137, 3-{5-Chloro-2-[3-(2-methanesulfonyl-ethyl)-8-methoxy-2,3,4,5-tetrahydro-1H-benzo[d]azepin-7-ylamino]-pyrimidin-4-ylamino}-4-methoxy-benzamide]

IC50 [1, 5]: < 100 nM | IC50 [2, 6]: 0.1 to 1 µM
Compound: COc1cccnc1-c1ccccc1Nc1nc(Nc2ccc3c(c2)C(C)(C)CCC(=O)N3)ncc1Cl [Example 989, 7-{5-Chloro-4-[2-(3-methoxy-pyridin-2-yl)-phenylamino]-pyrimidin-2-ylamino}-5,5-dimethyl-1,3,4,5-tetrahydro-benzo[b]azepin-2-one]

IC50 [1, 7]: < 100 nM | IC50 [2, 8]: 1 to 10 µM
Compound: COc1cc2c(cc1Nc1ncc(Cl)c(Nc3ccccc3S(C)(=O)=O)n1)CCN(CC(=O)N(C)C)CC2 [Example 1142, 2-{7-[5-Chloro-4-(2-methanesulfonyl-phenylamino)-pyrimidin-2-ylamino]-8-methoxy-1,2,4,5-tetrahydro-benzo[d]azepin-3-yl}-N,N-dimethyl-acetamide]

IC50 [1, 5]: < 100 nM | IC50 [2, 6]: < 0.1 µM
Compound: CNC(=O)c1cccc(F)c1Nc1nc(Nc2ccc3c(c2)CCC(N2CCN(C)CC2)CC3)ncc1Cl (racemic) [Example 899, 2-{5-Chloro-2-[7-(4-methyl-piperazin-1-yl)-6,7,8,9-tetrahydro-5H-benzocyclohepten-2-ylamino]-pyrimidin-4-ylamino}-3-fluoro-N-methyl-benzamide]

IC50 [1, 5]: < 100 nM | IC50 [2, 6]: > 10 µM
Compound: (1S,2S,3R,4R)-3-{5-Chloro-2-[6-(2-hydroxy-ethylamino)-1-methoxy-6,7,8,9-tetrahydro-5H-benzocyclohepten-2-ylamino]-pyrimidin-4-ylamino}-bicyclo[2.2.1]hept-5-ene-2-carboxylic acid amide [Example 960]

IC50 [1, 5]: 100 to 1000 nM | IC50 [2, 6]: 1 to 10 µM
Compound: COc1ccc(Nc2nc(Nc3ccc4c(c3)CCC(O)CC4)ncc2Cl)c2c1CN(C)C2=O (stereo not shown) [Example 938, 7-[5-Chloro-2-(7-hydroxy-6,7,8,9-tetrahydro-5H-benzocyclohepten-2-ylamino)-pyrimidin-4-ylamino]-4-methoxy-2-methyl-2,3-dihydro-isoindol-1-one]

IC50 [1, 7]: < 100 nM | IC50 [2, 8]: > 10 µM
Compound: COc1cc2c(cc1Nc1ncc(Cl)c(N[C@H]3[C@@H](C(N)=O)[C@@H]4C=C[C@H]3C4)n1)CCC(NCC(F)F)CC2 (single isomer, unassigned) [Example 1054]

IC50 [1, 5]: < 100 nM | IC50 [2, 6]: > 10 µM
Compound: COc1cc2c(cc1Nc1ncc(Cl)c(Nc3ccc(N(C)C)cc3S(=O)(=O)N(C)C)n1)CCN(CC(=O)N(C)C)CC2 [Example 833, 2-{7-[5-Chloro-4-(4-dimethylamino-2-dimethylsulfamoyl-phenylamino)-pyrimidin-2-ylamino]-8-methoxy-1,2,4,5-tetrahydro-benzo[d]azepin-3-yl}-N,N-dimethyl-acetamide]

IC50 [1, 5]: < 100 nM | IC50 [2, 6]: 1 to 10 µM
Compound: CS(=O)(=O)N[C@@H]1CCCC[C@H]1Nc1nc(Nc2ccc3c(c2)CNCCS3)ncc1Cl [Example 519, N-{(1R,2R)-2-[5-Chloro-2-(6,7,8,9-tetrahydro-5-thia-8-aza-benzocyclohepten-2-ylamino)-pyrimidin-4-ylamino]-cyclohexyl}-methanesulfonamide]

IC50 [1, 5]: < 100 nM | IC50 [2, 6]: > 10 µM
Compound: COc1c(Nc2ncc(Cl)c(N[C@@H]3CCCC[C@H]3NS(C)(=O)=O)n2)ccc2c1CCCC(NCCO)C2 (stereo partly drawn) [Example 965, N-((1R,2R)-2-{5-Chloro-2-[6-(2-hydroxy-ethylamino)-1-methoxy-6,7,8,9-tetrahydro-5H-benzocyclohepten-2-ylamino]-pyrimidin-4-ylamino}-cyclohexyl)-methanesulfonamide]

IC50 [1, 9]: < 100 nM | IC50 [2, 10]: < 0.1 µM
Compound: CNC(=O)c1ccccc1Nc1nc(Nc2ccc3c(c2)COCC2CCCCN32)ncc1Cl (stereo not shown) [Example 14, 2-[5-Chloro-2-(7,7a,8,9,10,11-hexahydro-5H-6-oxa-11a-aza-dibenzo[a,c]cyclohepten-3-ylamino)-pyrimidin-4-ylamino]-N-methyl-benzamide]

IC50 [1, 5]: < 100 nM | IC50 [2, 6]: 1 to 10 µM
Compound: COc1c(Nc2ncc(Cl)c(Nc3ccccc3S(=O)(=O)N(C)C)n2)ccc2c1CCC(N1CCOCC1)CC2 (stereo not shown) [Example 889, 2-[5-Chloro-2-(1-methoxy-7-morpholin-4-yl-6,7,8,9-tetrahydro-5H-benzocyclohepten-2-ylamino)-pyrimidin-4-ylamino]-N,N-dimethyl-benzenesulfonamide]

IC50 [1, 7]: < 100 nM | IC50 [2, 8]: 1 to 10 µM
Compound: COCCNC1CCc2cc(Nc3ncc(Cl)c(Nc4ccccc4S(=O)(=O)N4CCCC4)n3)c(OC)cc2CC1 (stereo not shown) [Example 1081, 5-Chloro-N*2*-[3-methoxy-7-(2-methoxy-ethylamino)-6,7,8,9-tetrahydro-5H-benzocyclohepten-2-yl]-N*4*-[2-(pyrrolidine-1-sulfonyl)-phenyl]-pyrimidine-2,4-diamine]

IC50 [1, 5]: 100 to 1000 nM | IC50 [2, 6]: > 10 µM
Compound: COc1ccc(Nc2ncc(Cl)c(Nc3ccccc3S(=O)(=O)C(C)C)n2)c2c1CCCC(N1CCOCC1)C2 (stereo not shown) [Example 946, 5-Chloro-N(2)-(4-methoxy-8-morpholin-4-yl-6,7,8,9-tetrahydro-5H-benzocyclohepten-1-yl)-N(4)-[2-(propane-2-sulfonyl)-phenyl]-pyrimidine-2,4-diamine]

IC50 [1, 3]: 100 to 1000 nM | IC50 [2, 4]: 1 to 10 µM
Compound: CC(=O)NCc1ccccc1Nc1nc(Nc2ccc3c(c2)CCOC(=O)N3C)ncc1Cl [Example 1793, N-{2-[5-Chloro-2-(5-methyl-6-oxo-5,6,8,9-tetrahydro-7-oxa-5-aza-benzocyclohepten-2-ylamino)-pyrimidin-4-ylamino]-benzyl}-acetamide]

— patent publication US8148391B2 (Cephalon, Inc., priority 2006, dated 2012)
